These results are taken from patent US11466020B2, “Compounds and compositions for inhibition and elimination of Zika infection and uses for same” (Cornell University, priority 2017, dated 2022).

Counter-ions that a name gives are not always drawn.

Data set [1] concerns human forebrain organoids. Kind of data set: Forebrain organoid proliferation, apoptosis, size and structure after ZIKV infection. Type of data set: cell-based. The text has this: Scale bars, 100 μm. […] Scale bars, 100 μm. […] Scale bars, 50 μm.
Medium was changed every other day.

For data set [2], the system named is ZIKV (FSS13025 strain). Kind of data set: Therapeutic treatment of ZIKV (FSS13025 strain) infected SCID-beige mice. The format is in vivo. The conditions noted are these: HH 100 mg/kg/day subcutaneously for 7 days from day 7 post-infection. Here is the method: (A) Scheme of prophylactic treatment of HH in vivo. HH was administrated to SCID-Beige mice 12 h before infection with MR766 virus strain. HH was injected at a dose of 100 mg/kg/day subcutaneously and euthanized at day 7. (B) qRT-PCR analysis of total ZIKV vRNA in liver, spleen, kidney and brain of ZIKV infected mice. n=12 for liver, spleen and kidney and 20 for brain. (C) qRT-PCR analysis of total ZIKV vRNA in brains of ZIKV-infected mice treated with vehicle (n=14) or HH (n=8). […] (D-F) Immunohistochemical analysis of adult cortex. […] HH prevents infection in all cortical cells. Scale bar=100 μm in (D) and 10 μm in (E, F). (G-I) Immunohistochemical analysis of adult hippocampus. […] HH inhibits infection of all cells in the hippocampus. […] The mice were then euthanized and RNA from brains was analyzed using qRT-PCR. […] The mice were euthanized after 7 days treatment and RNA from brains was analyzed using qRT-PCR. (W, X) qRT-PCR analysis of total vRNA (W) and (−) strand RNA (X) in the brains of mice treated with vehicle (n=8) or HH (n=11) at day 7 post-infection. p values were calculated by one-way repeated measures ANOVA or two-way repeated measures ANOVA with a Bonferroni test for multiple comparisons. *p<0.05, **p<0.01 and ***p<0.001.
To evaluate the therapeutic potential of HH, we first monitored the kinetics of ZIKV infection (MR766 strain) in the adult mouse brain. […]

Regarding `CN1CCC2=C[C@H](O)[C@H]3OC(=O)c4cc5c(cc4[C@H]3[C@@H]21)OCO5` [HH, hippeastrine hydrobromide], the “ZIKV-associated proliferation (Ki67+) and apoptosis (CAS3+) defects in D20 organoids” value in data set [1] (25 μM HH for 3 days) was “completely rescued”. In data set [1] (25 μM HH, D20+18), the “ZIKV-induced structural defects in long-term organoid cultures” value is “successfully rescued”. The “cross-sectional area of ZIKV infected organoids at D20+18” value in data set [1] (25 μM HH, mock 1.6, ZIKV 0.4) is on record as 1.4 mm^2. The “neurotoxicity in forebrain organoids” value in data set [1] (HH compared with AQ) is “did not exhibit similar neurotoxicity as AQ”. Further, in data set [2], the “total and replication (-) strand vRNA in mouse brain” value was “significantly decreased”.
